Experimental data taken from PMC12203862, “BroadAMP-GPT: AI-Driven generation of broad-spectrum antimicrobial peptides for combating multidrug-resistant ESKAPE pathogens” (Gut Microbes, 2025).
Values after ≈ are worked out from the molar mass of the structure shown. Residues, ends and D or L forms follow the SMILES beside them.

How the values were obtained:
[1] = system: mouse red blood cells; assay: Haemolysis assay; type: cell-based
Description: Red blood cells (RBCs) from Kunming mice were used to evaluate the hemolytic toxicity of the selected AMPs. Fresh red blood cells were collected from mice and washed until the supernatant was completely cleared. Added 19-fold volume of PBS to prepare 2% RBC suspension. […] Afterward, the mixture was centrifuged at 1500 rpm for 10 min. Then transferred 30 µL supernatant to 96-well plate containing 70 µL PBS. The absorbance of the sample was measured at 450 nm by a microplate reader. PBS and 2% Triton X-100 was used as negative and positive control, respectively. The experiment was performed in triplicate and the hemolysis activity was calculated by the formula hemolysis = [(Absorbancesample- AbsorbancePBS)/(AbsorbanceTriton x-100-AbsorbancePBS)]×100%.

[2] = system: S. suis P1/7; assay: microbe, parasite or virus in culture
Description: (§1) Bacterial strains and growth conditions: All Gram-negative and Gram-positive bacterial strains (Supplementary Table S8) were cultured in Luria-Bertani (LB) or trypticase soy broth (TSB) agar plates, respectively, and incubated overnight at 37 °C unless specifically indicated. A single colony of the tested bacterial strains was inoculated into medium broth with shaking at 220 rpm for further experiments.
(§2) Minimal inhibitory concentrations: Antimicrobial susceptibility testing was performed by broth microdilution method for AMPs against Gram-positive and Gram-negative pathogens above mentioned, following the methods of document CLSI M100-ED34.[43] The MICs were defined as the lowest concentrations that inhibit visible growth of the tested bacteria.

[3] = MIC in the presence of 50% rabbit plasma; S. aureus, E. faecalis, S. suis, S. enteritis, K. pneumoniae
[4] = system: Caco-2; assay: Cytotoxicity, CCK-8; type: cell-based, human
Description: (§3) The cytotoxicity of selected AMPs to human laryngeal carcinoma epithelial cell (HEp-2) and colorectal adenocarcinoma cell (Caco-2) lines was evaluated using the CCK-8 method as previously described.[55] The cells were cultured in high-glucose dulbecco’s modified eagle medium (DMEM) supplemented with 10% fetal bovine serum (FBS) and 1% penicillin-streptomycin. Cells were inoculated in 96-well sterile microtiter plate at 5000 cells/100 μL. After cultured (37℃, 5%CO2) for 24 h, cells were treated with AMPs at concentrations ranging from 8 to 128 μg/mL for another 48 h. Afterward, the culture medium was replaced by fresh DMEM medium containing 10% CCK-8 and incubated for 1 h. The absorbance of the solution was measured at 450 nm by a microplate reader. Cell viability was calculated as: % cell viability = [(Abssample - Absblank)/(Absnegative - Absblank)]×100%. Each experiment was carried out with three replicates.

[5] = system: HEp-2; assay: Cytotoxicity, CCK-8; type: cell-based, human
Description: as §3

[6] = system: S. aureus clinical isolates (n = 40); type: cell-based
Description: as §1
as §2, with “bacteria. E. coli ATCC 25,922 and S. aureus ATCC 29,213 were served as quality controls.” for “bacteria.”

[7] = system: four Gram-positive and five Gram-negative bacteria, including ESKAPE pathogens; type: cell-based
Description: as §1
as §2, with “bacteria. E. coli ATCC 25,922 and S. aureus ATCC 29,213 were served as quality controls.” for “bacteria.”

[8] = system: S. enteritis S1; assay: organism not typed; type: cell-based
Description: as §1
as §2, with “bacteria. E. coli ATCC 25,922 and S. aureus ATCC 29,213 were served as quality controls.” for “bacteria.”

[9] = system: chymotrypsin; settings: 1 h, then MIC
[10] = system: E. faecalis JH2-2; assay: microbe, parasite or virus in culture; type: cell-based; settings: JH2-2
Description: as §1
as §2, with “bacteria. E. coli ATCC 25,922 and S. aureus ATCC 29,213 were served as quality controls.” for “bacteria.”

[11] = system: S. suis SH0918; assay: microbe, parasite or virus in culture; type: cell-based
Description: as §1
as §2, with “bacteria. E. coli ATCC 25,922 and S. aureus ATCC 29,213 were served as quality controls.” for “bacteria.”

[12] = system: E. coli ATCC 25922; assay: microbe, parasite or virus in culture; type: cell-based; settings: ATCC 25922
Description: as §1
as §2, with “bacteria. E. coli ATCC 25,922 and S. aureus ATCC 29,213 were served as quality controls.” for “bacteria.”

[13] = system: P. aeruginosa PAO1; assay: microbe, parasite or virus in culture; type: cell-based; settings: PAO1
Description: as §1
as §2, with “bacteria. E. coli ATCC 25,922 and S. aureus ATCC 29,213 were served as quality controls.” for “bacteria.”

[14] = system: P. aeruginosa PA14; assay: microbe, parasite or virus in culture; type: cell-based; settings: PA14
Description: as §1
as §2, with “bacteria. E. coli ATCC 25,922 and S. aureus ATCC 29,213 were served as quality controls.” for “bacteria.”

[15] = system: S. aureus YZSA-15; assay: microbe, parasite or virus in culture; type: cell-based; settings: YZSA-15
Description: as §1
as §2, with “bacteria. E. coli ATCC 25,922 and S. aureus ATCC 29,213 were served as quality controls.” for “bacteria.”

[16] = system: S. aureus M92-1; assay: microbe, parasite or virus in culture; type: cell-based; settings: M92-1
Description: as §1
as §2, with “bacteria. E. coli ATCC 25,922 and S. aureus ATCC 29,213 were served as quality controls.” for “bacteria.”

[17] = system: E. faecalis J2; assay: microbe, parasite or virus in culture; type: cell-based; settings: J2
Description: as §1
as §2, with “bacteria. E. coli ATCC 25,922 and S. aureus ATCC 29,213 were served as quality controls.” for “bacteria.”

[18] = system: S. agalactiae DL03; assay: microbe, parasite or virus in culture; type: cell-based; settings: DL03
Description: as §1
as §2, with “bacteria. E. coli ATCC 25,922 and S. aureus ATCC 29,213 were served as quality controls.” for “bacteria.”

[19] = system: S. aureus M147-2; assay: microbe, parasite or virus in culture; type: cell-based; settings: M147-2
Description: as §1
as §2, with “bacteria. E. coli ATCC 25,922 and S. aureus ATCC 29,213 were served as quality controls.” for “bacteria.”

[20] = system: E. faecium HFY01; assay: microbe, parasite or virus in culture; type: cell-based; settings: HFY01
Description: as §1
as §2, with “bacteria. E. coli ATCC 25,922 and S. aureus ATCC 29,213 were served as quality controls.” for “bacteria.”

[21] = system: E. faecium QF31; assay: microbe, parasite or virus in culture; type: cell-based; settings: QF31
Description: as §1
as §2, with “bacteria. E. coli ATCC 25,922 and S. aureus ATCC 29,213 were served as quality controls.” for “bacteria.”

[22] = system: E. faecalis ES01; assay: microbe, parasite or virus in culture; type: cell-based; settings: ES01
Description: as §1
as §2, with “bacteria. E. coli ATCC 25,922 and S. aureus ATCC 29,213 were served as quality controls.” for “bacteria.”

[23] = system: E. faecalis SF23-1; assay: microbe, parasite or virus in culture; type: cell-based; settings: SF23-1
Description: as §1
as §2, with “bacteria. E. coli ATCC 25,922 and S. aureus ATCC 29,213 were served as quality controls.” for “bacteria.”

[24] = system: S. aureus YZSA-21; assay: microbe, parasite or virus in culture; type: cell-based; settings: YZSA-21
Description: as §1
as §2, with “bacteria. E. coli ATCC 25,922 and S. aureus ATCC 29,213 were served as quality controls.” for “bacteria.”

[25] = system: A. baumannii 7979; assay: microbe, parasite or virus in culture; type: cell-based; settings: 7979
Description: as §1
as §2, with “bacteria. E. coli ATCC 25,922 and S. aureus ATCC 29,213 were served as quality controls.” for “bacteria.”

[26] = system: E. faecium MC38; assay: microbe, parasite or virus in culture; type: cell-based; settings: MC38
Description: as §1
as §2, with “bacteria. E. coli ATCC 25,922 and S. aureus ATCC 29,213 were served as quality controls.” for “bacteria.”

[27] = system: K. pneumoniae 9-1; assay: microbe, parasite or virus in culture; type: cell-based; settings: 9-1
Description: as §1
as §2, with “bacteria. E. coli ATCC 25,922 and S. aureus ATCC 29,213 were served as quality controls.” for “bacteria.”

[28] = system: S. aureus YZSA-24; assay: microbe, parasite or virus in culture; type: cell-based; settings: YZSA-24
Description: as §1
as §2, with “bacteria. E. coli ATCC 25,922 and S. aureus ATCC 29,213 were served as quality controls.” for “bacteria.”

[29] = system: S. pyogenes DL02; assay: microbe, parasite or virus in culture; type: cell-based; settings: DL02
Description: as §1
as §2, with “bacteria. E. coli ATCC 25,922 and S. aureus ATCC 29,213 were served as quality controls.” for “bacteria.”

[30] = system: S. aureus ATCC 29213; assay: microbe, parasite or virus in culture; type: cell-based; settings: ATCC 29213
[31] = biological target: proteinase K (Parengyodontium album, UniProt P06873); assay: Protease stability by MIC change; type: in vitro ADME; settings: proteinase K 10 μg/mL, 37℃, 1 h, then MIC
[32] = system: trypsin; settings: trypsin 10 μg/mL, 37℃, 1 h, then MIC
Description: (§4) To understand stability of peptide under different pH conditions, AMP solutions were prepared at different pH values (pH = 2, 4, 6, 8, 10, and 12) and then incubated at room temperature for 1 h. For the temperature stability, AMP solutions were incubated at 20, 25, 40, 60, 80, and 100℃ for 1 h. For the protease stability, AMP solutions were incubated with pepsin, trypsin, and proteinase K at different concentration of 10 μg/mL at 37℃ for 1 h.[52],[53] After incubation, the MIC values peptides were determined using the MIC experimental protocol.

[33] = system: pepsin; settings: pepsin 10 μg/mL, 37℃, 1 h, then MIC
Description: as §4

Chain of proteinase K (P06873 106-384): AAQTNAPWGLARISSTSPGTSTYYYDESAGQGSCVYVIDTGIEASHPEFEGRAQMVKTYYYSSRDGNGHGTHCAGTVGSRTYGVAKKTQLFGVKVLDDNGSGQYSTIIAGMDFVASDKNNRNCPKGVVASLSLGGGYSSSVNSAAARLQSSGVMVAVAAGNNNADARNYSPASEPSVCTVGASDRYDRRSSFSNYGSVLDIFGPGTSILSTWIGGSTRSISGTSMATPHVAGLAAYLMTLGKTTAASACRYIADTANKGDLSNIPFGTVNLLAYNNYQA

CC[C@H](C)[C@H](NC(=O)[C@H](C)NC(=O)[C@H](CCC(N)=O)NC(=O)[C@H](Cc1c[nH]c2ccccc12)NC(=O)[C@H](C)N)C(=O)N[C@@H](C)C(=O)N[C@@H](CCCNC(=N)N)C(=O)N[C@@H](CC(C)C)C(=O)N[C@H](C(=O)N[C@@H](CCCCN)C(=O)NCC(=O)N[C@@H](CCCNC(=N)N)C(=O)NCC(=O)N[C@@H](CCCNC(=N)N)C(=O)N[C@@H](CCCCN)C(=O)N[C@@H](CCCCN)C(=O)N[C@@H](Cc1ccc(O)cc1)C(=O)NCC(=O)N[C@@H](CCCNC(=N)N)C(=O)N[C@H](C(=O)N[C@H](C(=O)N[C@H](C(=O)N[C@H](C(=O)NCC(=O)O)[C@@H](C)CC)[C@@H](C)CC)[C@@H](C)CC)[C@@H](C)CC)[C@@H](C)CC [AMP_S13] (H-AWQAIARLIKGRGRKKYGRIIIIG-OH) showed an HC50/MIC ([1]; MIC values against S. aureus ATCC 29213) of 116.08, an HC50 ([1]; mouse red blood cells, 37℃, 1 h) of 928.6 µg/mL and an MIC [2] of 4 µg/mL (≈ 1.46 µM). For the same compound, the “antimicrobial activity in plasma” value [3] was “remained effective”, the CC50 ([4]; 48 h) was 1011 µg/mL (≈ 369 µM) and the CC50/MIC ([4]; Caco-2, MIC values against S. aureus ATCC 29213) was 126.38. For the same compound, the CC50 ([5]; 48 h) was 353.3 µg/mL (≈ 129 µM), the CC50/MIC ([5]; HEp-2, MIC values against S. aureus ATCC 29213) was 44.16 and the “MICs, range over clinical isolates” value [6] was 4 to 32 µg/mL. For the same compound, the “MIC values, range” value [7] was 2 to 16 µg/mL, the “MICs, range over panel” value [7] was 2 to 16 µg/mL and the MIC [8] was 16 µg/mL (≈ 5.84 µM). The “antimicrobial activity (MIC) after protease incubation” value (shortened to “antimicrobial activity (MIC)”) [9] was “maintained its activity”, the MIC [10] was 8 µg/mL (≈ 2.92 µM) and the MIC [11] was 4 µg/mL (≈ 1.46 µM). For the same compound, the MIC [12] was 8 µg/mL (≈ 2.92 µM), the MIC [13] was 8 µg/mL (≈ 2.92 µM) and the MIC [14] was 8 µg/mL (≈ 2.92 µM). It also gave an MIC [15] of 8 µg/mL (≈ 2.92 µM), an MIC [16] of 8 µg/mL (≈ 2.92 µM) and an MIC [17] of 8 µg/mL (≈ 2.92 µM). It also gave an MIC [18] of 4 µg/mL (≈ 1.46 µM), an MIC [19] of 8 µg/mL (≈ 2.92 µM) and an MIC [20] of 4 µg/mL (≈ 1.46 µM). It also gave an MIC [21] of 4 µg/mL (≈ 1.46 µM), an MIC [22] of 4 µg/mL (≈ 1.46 µM) and an MIC [23] of 8 µg/mL (≈ 2.92 µM). It also gave an MIC [24] of 8 µg/mL (≈ 2.92 µM), an MIC [25] of 2 µg/mL (≈ 0.73 µM) and an MIC [26] of 4 µg/mL (≈ 1.46 µM). It also gave an MIC [27] of 16 µg/mL (≈ 5.84 µM), an MIC [28] of 16 µg/mL (≈ 5.84 µM) and an MIC [29] of 4 µg/mL (≈ 1.46 µM). For the same compound, the MIC [30] was 8 µg/mL (≈ 2.92 µM), the “antimicrobial activity (MIC)” value [31] was “only a two-fold decrease in MIC” and the “antimicrobial activity (MIC)” value [32] was “maintained its activity”. For the same compound, the “antimicrobial activity (MIC)” value [33] was “maintained its activity”.
